{
  "source": "paper PMC5559473",
  "about": "“Screening of TB Actives for Activity against Nontuberculous Mycobacteria Delivers High Hit Rates” (Frontiers in Microbiology, 2017)",
  "key": {"[1]": {"system": "M. avium 11", "test": "Single point growth inhibition screening assay", "assay_type": "cell-based, Mycobacterium avium", "conditions": "M. avium 11, 20 μM, 4 days"}, "[2]": {"system": "M. abscessus Bamboo", "test": "Single point growth inhibition screening assay", "assay_type": "cell-based, Mycobacterium abscessus", "conditions": "20 μM, 3 days"}, "[3]": {"system": "M. abscessus Bamboo", "test": "Bactericidal assay (CFU, fold kill)", "assay_type": "cell-based, Mycobacterium abscessus", "conditions": "10^7 CFU/mL exposed to MIC90 for 3 days, CFU vs starting inoculum"}, "[4]": {"system": "M. avium", "conditions": "ref Heifets et al., 1992; cited from earlier work"}, "[5]": {"system": "M. abscessus", "conditions": "ref Aziz et al., 2017; cited from earlier work"}, "[6]": {"system": "M. avium 11", "test": "Dose-response growth inhibition (broth microdilution)", "assay_type": "cell-based, Mycobacterium avium", "conditions": "Mycobacterium avium, 96 h, M. avium 11, 4 days"}, "[7]": {"system": "M. abscessus Bamboo", "test": "Dose-response growth inhibition (broth microdilution)", "assay_type": "cell-based, Mycobacterium abscessus", "conditions": "Mycobacteroides abscessus, 72 h, M. abscessus Bamboo, 3 days"}, "[8]": {"system": "M. avium 11", "test": "Bactericidal assay (CFU, fold kill)", "assay_type": "cell-based, Mycobacterium avium", "conditions": "10^7 CFU/mL exposed to MIC90 for 4 days, CFU vs starting inoculum"}},
  "data": [
    {"smiles": "COc1nc2ccc(Br)cc2cc1[C@@H](c1ccccc1)[C@@](O)(CCN(C)C)c1cccc2ccccc12", "note": "[bedaquiline]", "values": [
      {"measurement": "Activity in primary screen (hit = equal or more than 80% growth inhibition)", "setting": "[1]", "result": "showed activity"},
      {"measurement": "Activity in primary screen (hit = equal or more than 80% growth inhibition)", "setting": "[2]", "result": "showed activity"}
    ]},
    {"smiles": "CC[C@H]1OC(=O)[C@H](C)[C@@H](O[C@H]2C[C@@](C)(OC)[C@@H](O)[C@H](C)O2)[C@H](C)[C@@H](O[C@@H]2O[C@H](C)C[C@H](N(C)C)[C@H]2O)[C@](C)(OC)C[C@@H](C)C(=O)[C@H](C)[C@@H](O)[C@]1(C)O", "note": "[clarithromycin, reference compound]", "values": [
      {"measurement": "Fold kill at MIC90", "setting": "[3]", "result": "NK (NK, “no kill,” i.e., CFU reduction < 10-fold at MIC90)"},
      {"measurement": "Concentration required to reduce CFU 10-fold, relative to MIC90", "setting": "[4]", "result": "up to 64 times"},
      {"measurement": "Concentration required to reduce CFU 10-fold, relative to MIC90", "setting": "[5]", "result": "up to 100 times"},
      {"measurement": "MIC50", "setting": "[6]; read-out: MIC50", "result": "< 0.2", "unit": "µM"},
      {"measurement": "MIC90", "setting": "[6]; read-out: MIC90", "result": 0.6, "unit": "µM"},
      {"measurement": "MIC50", "setting": "[7]; read-out: MIC50", "result": "< 0.2", "unit": "µM"},
      {"measurement": "MIC90", "setting": "[7]; read-out: MIC90", "result": 0.5, "unit": "µM"},
      {"measurement": "Fold kill at MIC90", "setting": "[8]", "result": "NK (NK, “no kill,” i.e., CFU reduction < 10-fold at MIC90)"}
    ]},
    {"smiles": "C[C@H]1COc2c(N3CCN(C)CC3)c(F)cc3c(=O)c(C(=O)O)cn1c23", "note": "[levofloxacin]", "values": [
      {"measurement": "Activity in primary screen (hit = equal or more than 80% growth inhibition)", "setting": "[1]", "result": "showed activity"},
      {"measurement": "Activity in primary screen (hit = equal or more than 80% growth inhibition)", "setting": "[2]", "result": "showed activity"}
    ]}
  ]
}
